Source: PubChem BioAssay (NCI)
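How tested: cells in 96-well plates exposed to compound for 48 hours at five concentrations. Definition used: TGI = concentration required for complete inhibition of growth.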

Assays:
Test in all cases: growth of human tumour cells (NCI), 48 h
SN12C renal = test system: SN12C renal
K-562 leukemia = test system: K-562 leukemia
A498 renal = test system: A498 renal
SNB-19 CNS = test system: SNB-19 CNS
KM12 colon = test system: KM12 colon
HCT-15 colon = test system: HCT-15 colon
A549 NSCLC = test system: A549 NSCLC
TK-10 renal = test system: TK-10 renal
OVCAR-5 ovarian = test system: OVCAR-5 ovarian
EKVX NSCLC = test system: EKVX NSCLC
UACC-62 melanoma = test system: UACC-62 melanoma
HCT-116 colon = test system: HCT-116 colon
NCI-H522 lung = test system: NCI-H522 lung
HOP-92 NSCLC = test system: HOP-92 NSCLC
786-0 renal = test system: 786-0 renal
NCI-H23 lung = test system: NCI-H23 lung
IGROV1 ovarian = test system: IGROV1 ovarian
NCI/ADR-RES ovarian = test system: NCI/ADR-RES ovarian
DU-145 prostate = test system: DU-145 prostate

Structure (SMILES)	TGI (SN12C renal) [µM]	TGI (K-562 leukemia) [µM]	TGI (A498 renal) [µM]	TGI (SNB-19 CNS) [µM]	TGI (KM12 colon) [µM]	TGI (HCT-15 colon) [µM]	TGI (A549 NSCLC) [µM]	TGI (TK-10 renal) [µM]	TGI (OVCAR-5 ovarian) [µM]	TGI (EKVX NSCLC) [µM]	TGI (UACC-62 melanoma) [µM]	TGI (HCT-116 colon) [µM]	TGI (NCI-H522 lung) [µM]	TGI (HOP-92 NSCLC) [µM]	TGI (786-0 renal) [µM]	TGI (NCI-H23 lung) [µM]	TGI (IGROV1 ovarian) [µM]	TGI (NCI/ADR-RES ovarian) [µM]	TGI (DU-145 prostate) [µM]
COc1c(Cl)c2c(c(OC)c1OC)-c1ccc(OC)c(=O)c(Cl)c1C(NC(C)=O)CC2 (configuration not stated)	> 36.4	> 100	0.413	> 100	> 100	2.38	> 100	> 100	> 100	> 100	44.6	0.322	0.468	13.8	> 33.8	–	–	–	–
COc1cc(C2=NN(C)C(c3ccc([N+](=O)[O-])o3)C2)cc(OC)c1OC (configuration not stated)	> 100	> 100	> 100	> 100	> 100	32.7	> 100	> 100	> 100	> 100	> 100	> 100	> 100	> 100	42.7	> 100	> 100	–	–
CC(=O)c1cccc(NC(=O)/C(=N\NC(C)(C)C)c2c(O)c3ccccc3oc2=O)c1	> 100	–	–	> 100	> 100	> 100	> 100	> 100	–	> 100	> 100	> 100	> 100	> 100	> 100	> 100	> 100	–	–
CC1=NN(c2nc(N)nc(CCl)n2)CC1	> 100	32.7	> 100	> 100	55.3	43.6	> 100	> 100	57.4	35.8	31	87.4	4.91	38.7	23	41.2	25.9	74.1	> 100
COC(=O)c1ccc(OCc2ccc3nc(OC)c(OC)nc3c2)cc1	> 100	> 100	–	> 100	> 100	> 100	> 100	> 100	> 100	> 100	–	> 100	> 100	–	> 100	> 100	–	–	–
C=CCCC(OCOCCOC)c1cc(C)c(O[Si](C)(C)C(C)(C)C)c(C)c1 (configuration not stated)	32.2	26.2	70.6	20.7	29.3	31.4	38.5	41.2	32.4	63.5	38.1	–	25.4	–	28.1	31.5	90.5	–	–
N#Cc1c2ccc([N+](=O)[O-])cc2c(=O)n2c1sc1ccc(C(F)(F)F)cc12	> 100	> 100	> 100	> 100	> 100	> 100	> 100	> 100	> 100	> 100	–	> 100	> 100	> 100	> 100	> 100	> 100	> 100	> 100
CCCCCCCC1(N=[N+]=[N-])C(=O)c2ccccc2N(C)C1=O (configuration not stated)	> 100	–	> 100	> 100	> 100	> 100	> 100	> 100	> 100	> 100	> 100	> 100	> 100	89.6	> 100	> 100	> 100	> 100	> 100
CCN1CCC(O)(c2ccc(C)cc2)C(C(=O)c2ccc(C)cc2)C1 (configuration not stated)	19.8	> 100	> 100	> 100	> 91.9	36.5	> 100	> 61	47.4	36.1	> 60	30.3	3.44	40.1	26.6	> 55.1	> 58.9	–	–
COc1ccc2c(c1)c(=O)c1ccccc1n2/C=C/C(=O)O	> 100	> 100	> 100	> 100	> 100	> 100	> 100	> 100	> 100	> 100	> 100	> 100	> 100	> 100	> 100	> 100	> 100	–	–
COc1cc(OC)cc(Oc2nc3ccccc3nc2C(=O)O)c1	–	> 100	> 100	> 100	> 100	> 100	> 100	> 100	> 100	> 100	> 100	> 100	> 100	> 100	> 100	> 100	> 100	> 100	> 100
CNC(=O)CN(CC(=O)NC)C(=O)NC	–	> 100	> 100	> 100	> 100	> 100	> 100	> 100	> 100	> 100	> 100	–	> 100	> 100	> 100	> 100	> 100	–	–
O=C1CCCCC1CN1CCCC1 (configuration not stated)	> 100	> 100	> 100	–	> 100	> 100	> 100	> 100	> 100	> 100	–	> 100	0.521	–	> 100	> 100	> 100	–	–
CC1=NN(c2ccccc2)C(=O)C1=C1SCCS1	> 100	> 69.1	> 100	> 100	> 100	> 59.7	> 100	> 100	> 100	> 100	> 100	> 64.6	97.1	> 85.8	> 100	> 100	> 100	–	–
